Data reported in patent US9212168B2 (priority 2011, dated 2015).

Tests used:
[1] = system: HCV genotype 2a (J6 strain) NS5A chimeric replicon; experiment: Replicon assay against NS5A sequence of genotype 2a (J6 strain), intergenotypic chimera; format: cell-based; conditions: Hepatitis C virus, read-out: Genotype 2a (J6)
Protocol: (§1) Assay 4: Replicon Assays Against NS5A Sequences of Other Genotypes
(§2) Potencies of test compounds against NS5A sequences of other genotypes were determined by creating intergenotypic chimeras. The entire NS5A gene from genotypes 2a, 2b, 3a, 4a, 5a, and 6a, or the nucleotide sequence encoding amino acids 11-118 of NS5A, was subcloned into a genotype 1b replicon. For genotype 2a, intergenotypic chimeras with both the JFH and the J6 strain were created. […] Since the majority of genotype 2a sequences in public databases contain the L31M sequence variant, the use of the J6 genotype 2a sequence may better reflect the antiviral potency of NS5A inhibitors.
(§3) These chimeric replicon plasmids were then linearized and in vitro transcribed to RNA. The RNA was used to transiently or stably transfect Huh-LUNET cells by electroporation, and the potencies of test compounds against the chimeras were determined as previously described.

[2] = system: HCV genotype 1a replicon; experiment: HCV genotype 1a replicon assay (NS3 protease activity readout); format: cell-based, hepatitis C virus; conditions: Hepatitis C virus, read-out: Genotype 1a, HCV genotype 1a replicon
Procedure, shortened: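 Genotype 1a subgenomic replicon cells (APC89, Huh7.5) were treated with compound dose-responses in G418-free medium, 0.5% DMSO final, for 48 or 72 hours at 37° C. Lysate NS3/4a protease activity measured with 15 μM FRET substrate, 20 min at 37° C (ex 340/em 509 nm); EC50 by 4-parameter fit.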

[3] = system: HCV genotype 1a Y93H resistant mutant replicon; experiment: Replicon assay against resistant mutant 1a Y93H (transient transfection); format: cell-based; conditions: Hepatitis C virus, read-out: Genotype 1a Y93H
Protocol: Assay 3: Replicon Assays Against Resistant Mutants […]
Potencies of test compounds against additional mutations of interest were determined using transient transfection assays. These mutants included genotype 1a Y93C, Y93H, M28T, Q30E, Q30K, L31M, and Y93N. The mutation was first introduced into the parental plasmid by site-directed mutagenesis. The replicon plasmid was then linearized and in vitro transcribed to RNA. The RNA was used to transiently transfect Huh-LUNET cells (obtained from ReBLikon GmbH, Schriesheim, Germany) by electroporation, and the potencies of test compounds against the mutants were determined as previously described.

[4] = system: HCV genotype 3a NS5A chimeric replicon; experiment: Replicon assay against NS5A sequence of genotype 3a, intergenotypic chimera; format: cell-based; conditions: Hepatitis C virus, read-out: Genotype 3a
Protocol: as §1, §2, §3

[5] = system: HCV genotype 1b replicon; experiment: HCV genotype 1b replicon assay (Renilla luciferase readout); format: cell-based, hepatitis C virus; conditions: Hepatitis C virus, read-out: Genotype 1b
Procedure, shortened: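 Huh7-derived APC144 subgenomic replicon cells carrying Renilla luciferase–NS3-NS5B, seeded 10,000/well without G418, then treated with compound dose-responses for 48 h at 37 °C (0.5% DMSO final). Luciferase signal fitted by 4-parameter model to EC50, reported as pEC50.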

In the case of `COC(=O)N[C@H](C(=O)N1C[C@@H](C)C[C@H]1c1nc(-c2ccc(-c3ccc(C(=O)Nc4ccc(N5CCN(C(=O)C(C)(C)C)C[C@H]5C)nc4)cc3OC(F)(F)F)cc2)c(Cl)[nH]1)C(C)C` [Example 12, ((S)-1-{(2S,4S)-2-[5-Chloro-4-(4′-{6-[(R)-4-(2,2-dimethyl-propionyl)-2-methyl-piperazin-1-yl]-pyridin-3-ylcarbamoyl}-2′-trifluoromethoxy-biphenyl-4-yl)-1H-imidazol-2-yl]-4-methyl-pyrrolidine-1-carbonyl}-2-methyl-propyl)-carbamic acid methyl ester], the EC50 [1] is reported as 1 to 10 nM, the EC50 [2] is reported as under 0.1 nM and the EC50 [3] is reported as 1 to 10 nM. It also gave an EC50 [4] of 1 to 10 nM and an EC50 [5] of under 0.1 nM.
`COC(=O)N[C@H](C(=O)N1C[C@@H](C)C[C@H]1c1nc(-c2ccc(-c3cc(Cl)c(NC(=O)c4ccc(N5CCN(C(=O)C(C)(C)C)C[C@H]5C)nc4)cc3OC(F)(F)F)cc2)c[nH]1)C(C)C` [Example 10, [(S)-1-((2S,4S)-2-{4-[5′-Chloro-4′-({6-[(R)-4-(2,2-dimethyl-propionyl)-2-methyl-piperazin-1-yl]-pyridine-3-carbonyl}-amino)-2′-trifluoromethoxy-biphenyl-4-yl]-1H-imidazol-2-yl}-4-methyl-pyrrolidine-1-carbonyl)-2-methyl-propyl]-carbamic acid methyl ester] gave an EC50 [1] of 1 to 10 nM, an EC50 [2] of under 0.1 nM and an EC50 [3] of 1 to 10 nM. The EC50 [4] was 1 to 10 nM and the EC50 [5] was under 0.1 nM.
For `COC(=O)N[C@H](C(=O)N1C[C@@H](C)C[C@H]1c1nc(-c2ccc(-c3ccc(C(=O)Nc4ccc(N5CCN(C(=O)[C@H]6CC6(C)C)C[C@H]5C)nc4)cc3OC(F)(F)F)cc2)c[nH]1)C(C)C` [Example 8, ((S)-1-{(2S,4S)-2-[4-(4′-{6-[(R)-4-((S)-2,2-Dimethyl-cyclopropanecarbonyl)-2-methyl-piperazin-1-yl]-pyridin-3-ylcarbamoyl}-2′-trifluoromethoxy-biphenyl-4-yl)-1H-imidazol-2-yl]-4-methyl-pyrrolidine-1-carbonyl}-2-methyl-propyl)-carbamic acid methyl ester], the EC50 [1] was 10 to 1000 nM, the EC50 [2] was under 0.1 nM and the EC50 [3] was 10 to 1000 nM. It also gave an EC50 [4] of 10 to 1000 nM and an EC50 [5] of under 0.1 nM.
Work on `COC(=O)N[C@H](C(=O)N1C[C@@H](C)C[C@H]1c1nc(-c2ccc(-c3c(Cl)cc(C(=O)Nc4ccc(N5CCN(C(=O)C(C)(C)C)C[C@H]5C)nc4)cc3OC(F)(F)F)cc2)c[nH]1)C1CCOCC1` [Example 20, Methyl ((S)-2-((2S,4S)-2-(4-(2′-chloro-4′-((6-((R)-2-methyl-4-pivaloylpiperazin-1-yl)pyridin-3-yl)carbamoyl)-6′-(trifluoromethoxy)-[1,1′-biphenyl]-4-yl)-1H-imidazol-2-yl)-4-methylpyrrolidin-1-yl)-2-oxo-1-(tetrahydro-2H-pyran-4-yl)ethyl)carbamate] yielded an EC50 [1] of 1 to 10 nM, an EC50 [2] of under 0.1 nM and an EC50 [3] of 1 to 10 nM. It also gave an EC50 [4] of 1 to 10 nM and an EC50 [5] of under 0.1 nM.
Work on `CNC(=O)N1C[C@@H](C)N(c2ccc(C(=O)Nc3cc(OC(F)(F)F)c(-c4ccc(-c5c[nH]c([C@@H]6C[C@H](C)CN6C(=O)[C@@H](NC(=O)OC)C(C)C)n5)cc4)cc3Cl)cn2)C[C@@H]1C` [Example 1, ((S)-1-{(2S,4S)-2-[4-(5′-Chloro-4′-{[6-((2R,5S)-2,5-dimethyl-4-methylcarbamoyl-piperazin-1-yl)-pyridine-3-carbonyl]-amino}-2′-trifluoromethoxy-biphenyl-4-yl)-1H-imidazol-2-yl]-4-methyl-pyrrolidine-1-carbonyl}-2-methyl-propyl)-carbamic acid methyl ester] yielded an EC50 [1] of 10 to 1000 nM, an EC50 [2] of under 0.1 nM and an EC50 [3] of 10 to 1000 nM. For the same compound, the EC50 [4] was 10 to 1000 nM and the EC50 [5] was under 0.1 nM.
Compound `COC(=O)N[C@H](C(=O)N1C[C@@H](C(N)=O)C[C@H]1c1nc(-c2ccc(-c3cc(Cl)c(NC(=O)c4ccc(N5CCN(C(=O)C(C)(C)C)C[C@H]5C)nc4)cc3OC(F)(F)F)cc2)c[nH]1)C(C)C` [Example 18, [(S)-1-((2S,4S)-4-Carbamoyl-2-{4-[5′-chloro-4′-({6-[(R)-4-(2,2-dimethyl-propionyl)-2-methyl-piperazin-1-yl]-pyridine-3-carbonyl}-amino)-2′-trifluoromethoxy-biphenyl-4-yl]-1H-imidazol-2-yl}-pyrrolidine-1-carbonyl)-2-methyl-propyl]-carbamic acid methyl ester] has an EC50 [1] of 0.1 to 1 nM, an EC50 [2] of under 0.1 nM and an EC50 [3] of 1 to 10 nM. It also gave an EC50 [4] of 1 to 10 nM and an EC50 [5] of under 0.1 nM.
